From PMC6522510 (Nature Communications, 2019)
Counter-ions that a name gives are not always drawn. Like-named read-outs stand apart in the source and are kept apart here.

Experiments:
Design in all cases: species or system AML cell lines (8); Primary HTS, single concentration about 10 uM, Cell Titer Glo viability; log10 luminescence, per cent inhibition relative to cycloheximide control
Conditions in all cases: 72 h, relative to cycloheximide control, log10 luminescence, inhibitor
[1] = tested on: CHRF288-11
[2] = tested on: CMK
[3] = tested on: CMS
[4] = tested on: M07e
[5] = tested on: ML-2
[6] = tested on: MOLM-13
[7] = tested on: MV4-11
[8] = tested on: U937

Compound	CHRF288-11 %inh ([1]; CHRF288-11 %inh, 10 µM) [%]	CMK %inh ([2]; CMK %inh, 10 µM) [%]	CMS %inh ([3]; CMS %inh, 10 µM) [%]	M07e %inh ([4]; M07e %inh, 10 µM) [%]	ML-2 %inh ([5]; ML-2 %inh, 10 µM) [%]	MOLM-13 %inh ([6]; MOLM-13 %inh, 10 µM) [%]	MV4-11 %inh ([7]; MV4-11 %inh, 10 µM) [%]	U937 %inh ([8]; U937 %inh, 10 µM) [%]	CHRF288-11 %inh [1] [%]	CMK %inh [2] [%]	CMS %inh [3] [%]	M07e %inh [4] [%]	ML-2 %inh [5] [%]	MOLM-13 %inh [6] [%]	MV4-11 %inh [7] [%]	U937 %inh [8] [%]
CC1/C=C/C=C/C=C/C=C/C=C/C=C/C=C/C(OC2O[C@H](C)[C@@H](O)[C@H](N)[C@@H]2O)CC(O)C(C(=O)O)C(O)CC(=O)CC(O)CC(O)CC(O)CC(=O)CCCC(=O)CC(=O)OC1C(C)CC(C)C(O)CC(=O)c1ccc(N)cc1 (single isomer, unassigned) [SJ000565161-1, CANDICIDIN]	56.49	120.6	12.57	2.094	42.43	72.78	39.81	16.5	–	–	–	–	–	–	–	–
CC1/C=C/C=C/C=C/C=C/C=C/C=C/C=C/C(OC2O[C@H](C)[C@@H](O)[C@H](N)[C@@H]2O)CC(O)C(C(=O)O)C(O)CC(=O)CC(O)CC(O)CC(O)CC(=O)CCCC(=O)CC(=O)OC1C(C)CC(C)C(O)CC(=O)c1ccc(N)cc1 (single isomer, unassigned) [SJ000565161-2, CANDICIDIN]	84.68	-1.968	0.8019	-1.61	-0.08515	0.5936	0.2404	-1.702	–	–	–	–	–	–	–	–
O=c1ncnc2n([C@H]3O[C@@H](CO)[C@H](O)[C@@H]3O)[nH]cc1-2 (stereo in doubt) [SJ000562682-1, ALLOPURINOL RIBOSIDE]	–	–	–	–	–	–	–	–	1.868	1.077	-1.89	-1.058	0.3274	4.507	0.9814	0.8426
CO[C@H]1/C=C/O[C@@]2(C)Oc3c(C)c(O)c4c(O)c(c(/C=N/N5CCN(C)CC5)c(O)c4c3C2=O)NC(=O)/C(C)=C\C=C\[C@H](C)[C@H](O)[C@@H](C)[C@@H](O)[C@@H](C)[C@H](OC(C)=O)[C@@H]1C [SJ000000850-5, RIFAMPIN | RIFAMPICIN]	0.3238	-4.011	9.631	0.4502	5.116	-1.813	3.37	3.295	–	–	–	–	–	–	–	–
CO[C@H]1/C=C/O[C@@]2(C)Oc3c(C)c(O)c4c(O)c(c(/C=N/N5CCN(C)CC5)c(O)c4c3C2=O)NC(=O)/C(C)=C\C=C\[C@H](C)[C@H](O)[C@@H](C)[C@@H](O)[C@@H](C)[C@H](OC(C)=O)[C@@H]1C [SJ000000850-6, RIFAMPIN | RIFAMPICIN]	0.456	-0.3986	11.96	0.5367	3.762	5.052	5.189	3.577	–	–	–	–	–	–	–	–
CO[C@H]1/C=C/O[C@@]2(C)Oc3c(C)c(O)c4c(O)c(c(/C=N/N5CCN(C)CC5)c(O)c4c3C2=O)NC(=O)/C(C)=C\C=C\[C@H](C)[C@H](O)[C@@H](C)[C@@H](O)[C@@H](C)[C@H](OC(C)=O)[C@@H]1C [SJ000000850-7, RIFAMPIN | RIFAMPICIN]	22.26	0.4994	16.96	2.856	2.607	4.02	6.955	2.422	–	–	–	–	–	–	–	–
COc1cc2nc(N3CCN(C(=O)C4COc5ccccc5O4)CC3)nc(N)c2cc1OC (stereo not drawn) [SJ000113084-6, DOXAZOSIN MESYLATE]	–	–	–	–	–	–	–	–	36.53	9.497	0.401	-1.557	-0.964	9.986	-1.195	1.071
N#Cc1c(NC(=O)c2ccccc2F)sc2c1CCCC2 [SJ000121296-2, R15619/66/1]	–	–	–	–	–	–	–	–	1.937	11.25	2.048	15.03	8	0.9257	-1.785	21.81
CC(=O)[C@H]1CC[C@H]2[C@@H]3CC=C4C[C@@H](O)CC[C@]4(C)[C@H]3CC[C@]12C [SJ000281777-6, PREGNENOLONE]	–	–	–	–	–	–	–	–	0.2511	-1.238	6.885	1.706	0.5574	2.085	6.672	3.219
O=c1oc2ccccc2c(O)c1Cc1c(O)c2ccccc2oc1=O [SJ000285189-5, DICUMAROL]	8.973	-3.554	-1.99	-2.456	-1.314	-3.706	-2.098	-0.6	–	–	–	–	–	–	–	–
O=c1oc2ccccc2c(O)c1Cc1c(O)c2ccccc2oc1=O [SJ000285189-6, DICUMAROL]	3.41	-0.9245	-1.661	0.4208	-0.8259	0.9251	0.4793	-0.6405	–	–	–	–	–	–	–	–
C[C@H]1O[C@@H](O[C@H]2[C@@H](O)C[C@H](O[C@H]3[C@@H](O)C[C@H](O[C@H]4CC[C@@]5(C)[C@H](CC[C@@H]6[C@@H]5CC[C@]5(C)[C@@H](C7=CC(=O)OC7)CC[C@]65O)C4)O[C@@H]3C)O[C@@H]2C)C[C@H](O)[C@@H]1O [SJ000285233-4, DIGITOXIN]	102.9	102	96.1	114.3	57.88	81.14	82.27	77.98	–	–	–	–	–	–	–	–
C[C@H]1O[C@@H](O[C@H]2[C@@H](O)C[C@H](O[C@H]3[C@@H](O)C[C@H](O[C@H]4CC[C@@]5(C)[C@H](CC[C@@H]6[C@@H]5CC[C@]5(C)[C@@H](C7=CC(=O)OC7)CC[C@]65O)C4)O[C@@H]3C)O[C@@H]2C)C[C@H](O)[C@@H]1O [SJ000285233-5, DIGITOXIN]	112.4	108.7	97.86	112.2	58.4	87.24	76.58	78.87	–	–	–	–	–	–	–	–
Cn1cnc([N+](=O)[O-])c1Sc1ncnc2[nH]cnc12 [SJ000285241-8, AZATHIOPRINE]	–	–	–	–	–	–	–	–	14.99	49.74	0.5483	7.374	14.66	36.41	14.19	-0.6587
Cc1ccc2cc3c(ccc4ccccc43)c3c2c1CC3 [SJ000285253-3, 3-METHYLCHOLANTHRENE]	–	–	–	–	–	–	–	–	5.022	1.143	3.804	0.9432	4.978	2.389	4.129	0.01725
Oc1c(Cl)cc(Cl)c(Cl)c1Cc1c(O)c(Cl)cc(Cl)c1Cl [SJ000285273-4, HEXACHLOROPHENE]	–	–	–	–	–	–	–	–	23.59	117.7	32.47	10.84	15.89	75.15	7.526	24.03
O=C(O)P(=O)(O)O [SJ000285291-3, FOSCARNET SODIUM]	–	–	–	–	–	–	–	–	-2.096	3.052	0.8709	-4.14	-0.9621	3.283	0.7745	-2.189
CN[C@@H]1[C@H](O[C@H]2[C@H](O[C@H]3[C@H](O)[C@@H](O)[C@H](N=C(N)N)[C@@H](O)[C@@H]3N=C(N)N)O[C@@H](C)[C@]2(O)C=O)O[C@@H](CO)[C@H](O)[C@H]1O [SJ000285297-4, STREPTOMYCIN SULFATE]	6.76	3.295	-1.268	-4.718	-3.476	1.953	-1.642	-1.404	–	–	–	–	–	–	–	–
